How the values were obtained:
Assay in all cases: viability relative to DMSO control (fraction); higher = less drug effect (more viable cells)
Conditions in all cases: 48 h
[1] = tested on: primary AML patient cells (S060)
Method in brief: (§1)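 Compounds were pre-plated at five concentrations, one well each, in 384-well plates, and primary mononuclear tumour cells were plated on them at 4 × 10^4 cells per well. The cells, fresh or cryopreserved, had been Ficoll-isolated from blood or bone marrow or taken from processed lymph node. After 48 h at 37 °C and 5% CO2 in RPMI-1640 with penicillin/streptomycin, L-glutamine and human serum, viability was read as CellTiter-Glo luminescence relative to the median of 16 inner DMSO wells.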

[2] = tested on: primary DLBCL patient cells (S076)
Method in brief: as §1

[3] = tested on: primary AML patient cells (S071)
Method in brief: as §1

[4] = tested on: primary T-NHL patient cells (S058)
Method in brief: as §1

[5] = tested on: primary B-PLL patient cells (S016)
Method in brief: as §1

[6] = tested on: primary AML patient cells (S085)
Method in brief: as §1

[7] = tested on: primary AML patient cells (S037)
Method in brief: as §1

[8] = tested on: primary AML patient cells (S091)
Method in brief: as §1

[9] = tested on: primary FL patient cells (S087)
Method in brief: as §1

[10] = tested on: primary ALL patient cells (S088)
Method in brief: as §1

[11] = tested on: primary MCL patient cells (S041)
Method in brief: as §1

[12] = tested on: primary AML patient cells (S011)
Method in brief: as §1

[13] = tested on: primary DLBCL patient cells (S049)
Method in brief: as §1

[14] = tested on: primary CLL patient cells (S031)
Method in brief: as §1

[15] = tested on: primary DLBCL patient cells (S082)
Method in brief: as §1

[16] = tested on: primary AML patient cells (S019)
Method in brief: as §1

[17] = tested on: primary AML patient cells (S089)
Method in brief: as §1

With `Oc1ccc(/C=C/c2cc(O)cc(O)c2)cc1` [Resveratrol] the viability ([1]; 0.024 µM) was 0.964, the viability ([1]; 0.12 µM) was 0.99 and the viability ([1]; 0.6 µM) was 0.946. For the same compound, the viability ([1]; 3 µM) was 0.918, the viability ([1]; 15 µM) was 0.893 and the viability ([2]; 0.024 µM) was 0.961. For the same compound, the viability ([2]; 0.12 µM) was 0.963, the viability ([2]; 0.6 µM) was 0.955 and the viability ([2]; 3 µM) was 0.94. The viability ([2]; 15 µM) was 0.882, the viability ([3]; 0.024 µM) was 0.774 and the viability ([3]; 0.12 µM) was 0.734. For the same compound, the viability ([3]; 0.6 µM) was 0.732, the viability ([3]; 3 µM) was 0.688 and the viability ([3]; 15 µM) was 0.591. For the same compound, the viability ([4]; 0.024 µM) was 0.917, the viability ([4]; 0.12 µM) was 0.998 and the viability ([4]; 0.6 µM) was 0.957. For the same compound, the viability ([4]; 3 µM) was 0.895, the viability ([4]; 15 µM) was 0.948 and the viability ([5]; 0.024 µM) was 0.852. It also gave a viability ([5]; 0.12 µM) of 0.85, a viability ([5]; 0.6 µM) of 0.864 and a viability ([5]; 3 µM) of 0.907. It also gave a viability ([5]; 15 µM) of 0.787, a viability ([6]; 0.024 µM) of 0.783 and a viability ([6]; 0.12 µM) of 0.735. For the same compound, the viability ([6]; 0.6 µM) was 0.819, the viability ([6]; 3 µM) was 0.735 and the viability ([6]; 15 µM) was 0.658. For the same compound, the viability ([7]; 0.024 µM) was 0.792, the viability ([7]; 0.12 µM) was 0.994 and the viability ([7]; 0.6 µM) was 0.881. For the same compound, the viability ([7]; 3 µM) was 0.84, the viability ([7]; 15 µM) was 0.96 and the viability ([8]; 0.024 µM) was 0.863. It also gave a viability ([8]; 0.12 µM) of 0.832, a viability ([8]; 0.6 µM) of 0.868 and a viability ([8]; 3 µM) of 0.708. It also gave a viability ([8]; 15 µM) of 0.553, a viability ([9]; 0.024 µM) of 0.804 and a viability ([9]; 0.12 µM) of 0.857. It also gave a viability ([9]; 0.6 µM) of 0.803, a viability ([9]; 3 µM) of 0.877 and a viability ([9]; 15 µM) of 0.815. The viability ([10]; 0.024 µM) was 0.427, the viability ([10]; 0.12 µM) was 0.459 and the viability ([10]; 0.6 µM) was 0.489. The viability ([10]; 3 µM) was 0.477, the viability ([10]; 15 µM) was 0.426 and the viability ([11]; 0.024 µM) was 0.948. It also gave a viability ([11]; 0.12 µM) of 0.904, a viability ([11]; 0.6 µM) of 0.904 and a viability ([11]; 3 µM) of 0.896. The viability ([11]; 15 µM) was 0.77, the viability ([12]; 0.024 µM) was 0.808 and the viability ([12]; 0.12 µM) was 0.789. The viability ([12]; 0.6 µM) was 0.757, the viability ([12]; 3 µM) was 0.747 and the viability ([12]; 15 µM) was 0.682. For the same compound, the viability ([13]; 0.024 µM) was 0.849, the viability ([13]; 0.12 µM) was 0.846 and the viability ([13]; 0.6 µM) was 0.826. For the same compound, the viability ([13]; 3 µM) was 0.732, the viability ([13]; 15 µM) was 0.711 and the viability ([14]; 0.024 µM) was 0.761. It also gave a viability ([14]; 0.12 µM) of 0.766, a viability ([14]; 0.6 µM) of 0.744 and a viability ([14]; 3 µM) of 0.67. It also gave a viability ([14]; 15 µM) of 0.553, a viability ([15]; 0.024 µM) of 0.79 and a viability ([15]; 0.12 µM) of 0.776. For the same compound, the viability ([15]; 0.6 µM) was 0.828, the viability ([15]; 3 µM) was 0.871 and the viability ([15]; 15 µM) was 0.954. The viability ([16]; 0.024 µM) was 0.879, the viability ([16]; 0.12 µM) was 0.928 and the viability ([16]; 0.6 µM) was 1. The viability ([16]; 3 µM) was 0.918, the viability ([16]; 15 µM) was 0.924 and the viability ([17]; 0.024 µM) was 0.819. The viability ([17]; 0.12 µM) was 0.652, the viability ([17]; 0.6 µM) was 0.672 and the viability ([17]; 3 µM) was 0.53. For the same compound, the viability ([17]; 15 µM) was 0.549.
Compound `COc1cccc2c1C(=O)c1c(O)c3c(c(O)c1C2=O)C[C@@](O)(C(=O)CO)C[C@@H]3O[C@H]1C[C@H](N)[C@H](O)[C@H](C)O1` [Doxorubicin] has a viability ([1]; 0.0016 µM) of 1.03, a viability ([1]; 0.008 µM) of 1.05 and a viability ([1]; 0.04 µM) of 1.04. The viability ([1]; 0.2 µM) was 1.16, the viability ([1]; 1 µM) was 0.124 and the viability ([2]; 0.0016 µM) was 1.05. The viability ([2]; 0.008 µM) was 1.1, the viability ([2]; 0.04 µM) was 0.822 and the viability ([2]; 0.2 µM) was 0.453. The viability ([2]; 1 µM) was 0.034, the viability ([3]; 0.0016 µM) was 0.978 and the viability ([3]; 0.008 µM) was 0.745. It also gave a viability ([3]; 0.04 µM) of 0.27, a viability ([3]; 0.2 µM) of 0.116 and a viability ([3]; 1 µM) of 0.0761. For the same compound, the viability ([4]; 0.0016 µM) was 1.03, the viability ([4]; 0.008 µM) was 0.96 and the viability ([4]; 0.04 µM) was 0.823. For the same compound, the viability ([4]; 0.2 µM) was 0.525, the viability ([4]; 1 µM) was 0.145 and the viability ([5]; 0.0016 µM) was 1.09. For the same compound, the viability ([5]; 0.008 µM) was 0.847, the viability ([5]; 0.04 µM) was 0.175 and the viability ([5]; 0.2 µM) was 0.0427. It also gave a viability ([5]; 1 µM) of 0.0239, a viability ([6]; 0.0016 µM) of 0.94 and a viability ([6]; 0.008 µM) of 1.09. It also gave a viability ([6]; 0.04 µM) of 0.834, a viability ([6]; 0.2 µM) of 0.278 and a viability ([6]; 1 µM) of 0.0284. The viability ([7]; 0.0016 µM) was 1.06, the viability ([7]; 0.008 µM) was 1.05 and the viability ([7]; 0.04 µM) was 0.979. The viability ([7]; 0.2 µM) was 0.737, the viability ([7]; 1 µM) was 0.447 and the viability ([8]; 0.0016 µM) was 0.983. For the same compound, the viability ([8]; 0.008 µM) was 0.905, the viability ([8]; 0.04 µM) was 0.737 and the viability ([8]; 0.2 µM) was 0.637. For the same compound, the viability ([8]; 1 µM) was 0.499, the viability ([9]; 0.0016 µM) was 1.04 and the viability ([9]; 0.008 µM) was 1.03. For the same compound, the viability ([9]; 0.04 µM) was 0.98, the viability ([9]; 0.2 µM) was 0.776 and the viability ([9]; 1 µM) was 0.584. The viability ([10]; 0.0016 µM) was 1.05, the viability ([10]; 0.008 µM) was 1.02 and the viability ([10]; 0.04 µM) was 0.828. It also gave a viability ([10]; 0.2 µM) of 0.221, a viability ([10]; 1 µM) of 0.0329 and a viability ([11]; 0.0016 µM) of 0.994. It also gave a viability ([11]; 0.008 µM) of 1, a viability ([11]; 0.04 µM) of 0.942 and a viability ([11]; 0.2 µM) of 0.488. The viability ([11]; 1 µM) was 0.0259, the viability ([12]; 0.0016 µM) was 1.05 and the viability ([12]; 0.008 µM) was 1.04. The viability ([12]; 0.04 µM) was 0.973, the viability ([12]; 0.2 µM) was 0.507 and the viability ([12]; 1 µM) was 0.0215. The viability ([13]; 0.0016 µM) was 1.14, the viability ([13]; 0.008 µM) was 1 and the viability ([13]; 0.04 µM) was 0.827. It also gave a viability ([13]; 0.2 µM) of 0.3, a viability ([13]; 1 µM) of 0.0345 and a viability ([14]; 0.0016 µM) of 1.14. It also gave a viability ([14]; 0.008 µM) of 1.02, a viability ([14]; 0.04 µM) of 0.534 and a viability ([14]; 0.2 µM) of 0.0601. The viability ([14]; 1 µM) was 0.0158, the viability ([15]; 0.0016 µM) was 1.11 and the viability ([15]; 0.008 µM) was 1.1. It also gave a viability ([15]; 0.04 µM) of 0.945, a viability ([15]; 0.2 µM) of 0.878 and a viability ([15]; 1 µM) of 0.0843. For the same compound, the viability ([16]; 0.0016 µM) was 1.02, the viability ([16]; 0.008 µM) was 1.06 and the viability ([16]; 0.04 µM) was 0.828. For the same compound, the viability ([16]; 0.2 µM) was 0.481, the viability ([16]; 1 µM) was 0.219 and the viability ([17]; 0.0016 µM) was 1.01. The viability ([17]; 0.008 µM) was 1, the viability ([17]; 0.04 µM) was 1.01 and the viability ([17]; 0.2 µM) was 0.665. The viability ([17]; 1 µM) was 0.187.

From the supplement of paper PMC10733146
